Reference: patent publication US20250000855A1, “USE OF APOMORPHINE AS THERAPEUTIC AGENT FOR NECROPTOSIS-RELATED DISEASES” (INDUSTRY-ACADEMIC COOPERATION FOUNDATION, YONSEI UNIVERSITY, priority 2021, published 2025)

Key:
DSS-induced colitis = DSS-induced colitis mouse model; type: in vivo, C57BL/6 mice
Protocol: An animal experiment was performed on 6 to 8-week-old male C57BL/6 mice in accordance with the procedures approved by the Animal Care and Use Committee of the Yonsei Laboratory Animal Research Center (YLARC, 2018-0024) at Yonsei University. The mice were housed in polypropylene cages with a maximum of four mice per cage under constant temperature and humidity, and the light/dark cycle was 12 hours/12 hours. All mice were given an acclimation period of at least 7 days before participation.
For colitis induced by dextran sulfate sodium (DSS, 36-50 kDa, MP Biomedicals), the mice were administered 2.5% DSS in drinking water for 7 days. The mice were randomly divided into 8 groups as follows. • 1) Control • 2) Apomorphine-treated group (=APO; STK088477, Vitas-M, 1.5 mg/kg, daily intraperitoneal injection) • 3) APO-treated group (15 mg/kg, daily intraperitoneal injection) 4) DSS-treated group • 5) DSS and necrostatine-1-treated group (NEC-1; Biovision, 1864-5, 1.5 mg/kg, daily intraperitoneal injection) • 6) DSS and APO-treated group (0.15 mg/kg, daily intraperitoneal injection) • 7) DSS and APO-treated group (1.5 mg/kg, daily intraperitoneal injection) • 8) DSS and APO-treated group (15 mg/kg, daily intraperitoneal injection)
The body weights and disease activity index (DAI) scores of the mice were recorded daily. DAI was calculated by adding scores of body weight loss (0 point=none, 1 point=1%-5% weight loss, 2 points=5%-10% weight loss, 3 points=10%-15% weight loss, 4 points=15% or more weight loss), stool consistency/diarrhea (0 point=normal, 2 points=loose stools, 4 points=watery diarrhea), and bleeding (0 point=no bleeding, 2 points=slight bleeding, 4 points=total bleeding). At the end of the experiment, the mice were sacrificed, the colon was removed, and then changes in colon length were confirmed, and a weight loss was measured.
At the end of the experiment, the mice were sacrificed, and the colon was removed (without the cecum). The removed colon was washed with cold phosphate-buffered saline (PBS; Welgene, LB001-02) before the measurement of its length. The measured colon was prepared for further analysis by cutting intestinal segments along the mesenteric line and washing with PBS. Then, the intestinal segments were placed in a petri dish and fixed with modified Bouin's fixative (50% ethanol/5% acetic acid in dH2O). The lumen side was maintained upward by holding the proximal end with forceps in one hand and a toothpick in the other. Then, the flat open end of the colon was pulled with the forceps and the proximal end was wrapped around the toothpick. The entire large intestine was wrapped, placed in a cassette, and immersed in 4% paraformaldehyde (Biosesang, PC2031-100-00) at 4° C. overnight.
After the experiment, colon tissues collected from the sacrificed mice were fixed in 4% paraformaldehyde overnight. Swiss-rolled and fixed colon specimens were embedded in paraffin. The specimens were cut into 5-μm sections, and then the sections were stained with hematoxylin and eosin (H & E). The histological evaluation of colitis lesions along the entire length was performed with reference to a scoring system of the degree of crypt structure damage (0˜3), the degree of inflammatory cell infiltration (0˜3), and submucosal edema (0˜3).
5-μm cut paraffin sections were blocked with 5% BSA-supplemented TBS-T, and then the sections and primary antibodies were co-incubated at 4° C. overnight. Secondary antibodies were added and incubated for 1 hour. […]

[1] = molecular target: T1, MLKL N-term domain (amino acids 1-154) (Homo sapiens, UniProt Q8NB16); test: Surface plasmon resonance (SPR) analysis, binding to MLKL N-term domain; settings: MLKL N-term domain immobilized on CM5 chip, Biacore T200, 25° C., 10 mM HEPES pH 7.4
T1 construct: MLKL N-term (amino acids 1-154) protein that had been purified in a laboratory; made in house
T1 sequence (Q8NB16 1-154): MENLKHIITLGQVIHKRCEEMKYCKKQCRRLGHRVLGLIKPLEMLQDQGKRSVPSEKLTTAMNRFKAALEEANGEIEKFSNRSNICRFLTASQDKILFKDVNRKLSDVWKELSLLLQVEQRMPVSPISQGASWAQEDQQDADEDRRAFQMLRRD
Protocol: The interaction between MLKL and apomorphine (=APO) was detected through surface plasmon resonance (SPR) analysis using Biacore T200 (GE Healthcare). For pH scouting, a buffer consisting of 10 mM sodium acetate (pH 4.0 to 6.0) was used. MLKL protein (Abcam, ab241453), and MLKL N-term (amino acids 1-154) protein that had been purified in a laboratory were immobilized on the surface of a sensor chip CM5 (GE Healthcare) under scouted buffer conditions. To deduce an Rligand value, a coupling process was performed based on the molecular weights of MLKL, MLKL N-term domain (MW ligand), and APO (MW analyte). Oxidized (24 hr, RT incubation) and reduced (+DTT(DL-dithiothreitol)) forms of APO were injected into a running buffer (flow rate: 10 μl/min) consisting of 10 mM HEPES (pH 7.4) at 25° C. A sensorgram was recorded and analyzed in real time using control software provided by the Biacore T200 system itself. Six or more concentrations of APO were used in combination, and each KD value was derived. All run data was calculated using BIAevaluation Software (GE Healthcare).
SPR analysis was used to analyze the interaction pattern between APO and the MLKL protein (Experimental Method 1-10). […] Here, the analysis was performed by binding MLKL and the MLKL N-term domain protein immobilized on a CM5 chip with APO having six concentrations.

differences due to treatment with APO alone (without DSS) (DSS-induced colitis; mice without DSS, APO 1.5 or 15 mg/kg daily intraperitoneal injection): no differences
Kd [1]: 62.5 nM
SMILES: CN1CCc2cccc3c2[C@H]1Cc1ccc(O)c(O)c1-3 [APO, apomorphine]
characteristic symptoms of colitis observed by H&E staining and PAS staining (DSS-induced colitis; DSS mice, APO 0.15, 1.5, and 15 mg/kg daily intraperitoneal injection, FIG. 7A): alleviated in a concentration-dependent manner
HI score (DSS-induced colitis; DSS mice, APO daily intraperitoneal injection, FIG. 7A): reduce
degree of colon shortening (DSS-induced colitis; DSS mice, APO daily intraperitoneal injection, FIG. 7B): reduce
DAI score (DSS-induced colitis; DSS mice, APO daily intraperitoneal injection, FIG. 7C): reduce
